Converted amounts (≈) assume the structure as drawn. Structures can show the parent of a compound that is named as a salt. Where two headings read alike, the source gives them in different places.

The record followed here is patent US7989494B2, “Polymorphs of N-hydroxy-3-[4-[[[2-(2-methyl-1H-indol-3-yl)ethyl]amino]methyl]phenyl]-2E-2-propenamide” (Novartis AG, priority 2006, dated 2011).

Common to all, as to assay type: physicochemical
Data set [1] is described as follows: Solubility in organic solvents. The note with it: for solubility: organic solvent or mixture.
Data set [2] in a line: Hygroscopicity (descriptive).
The nature of a further data set: Aqueous solubility. Conditions: water.
Data set [3] in a line: Equilibration in solvents and aqueous media, solid form by XRPD.
Data set [4] in a line: Sorption-desorption isotherms, VTI humidity balance. The note with it: for Sorption: 25° C., first sorption cycle; for Desorption: in % (unit assumed). The procedure: Sorption-desorption isotherms were recorded by a VTI humidity balance. The salts of (N-hydroxy-3-[4-[[[2-(2-methyl-1H-indol-3-yl)ethyl]amino]methyl]phenyl]-2E-2-propenamide were first subjected to a drying step (25° C., r.h. below 2%, 2 hours) and then to a sorption-desorption-sorption sequence, with each RH % step retained for 3 hours. The free base was kept below 2% r.h. for several hours, and thus was completely dehydrated after the drying step. Only the data of the first sorption cycle are given in the table, since, in all cases, the two sorption cycles were very similar.

A short description of data set [5]: Hydration/dehydration of free base forms on storage or under vacuum. The note with it: for form change upon storage: storage at ambient conditions.

As for `Cc1[nH]c2ccccc2c1CCNCc1ccc(/C=C/C(=O)NO)cc1` [free base form A, N-hydroxy-3-[4-[[[2-(2-methyl-1H-indol-3-yl)ethyl]amino]methyl]phenyl]-2E-2-propenamide], the “solubility in hot ethanol” value in data set [1] (listed as Form A) is reported as “soluble”.

Consider `Cc1[nH]c2ccccc2c1CCNCc1ccc(/C=C/C(=O)NO)cc1` [Form B of the tartarate salt, N-hydroxy-3-[4-[[[2-(2-methyl-1H-indol-3-yl)ethyl]amino]methyl]phenyl]-2E-2-propenamide], for which the hygroscopicity result in data set [2] was “hygroscopic”.

As to `Cc1[nH]c2ccccc2c1CCNCc1ccc(/C=C/C(=O)NO)cc1` [Form A of the propionate salt, N-hydroxy-3-[4-[[[2-(2-methyl-1H-indol-3-yl)ethyl]amino]methyl]phenyl]-2E-2-propenamide], in “Aqueous solubility”, the aqueous solubility was around 4000 µg/mL.

Take `Cc1[nH]c2ccccc2c1CCNCc1ccc(/C=C/C(=O)NO)cc1` [free base form B, N-hydroxy-3-[4-[[[2-(2-methyl-1H-indol-3-yl)ethyl]amino]methyl]phenyl]-2E-2-propenamide]: in data set [1] (listed as form B), the “solubility in hot ethanol” value is “insoluble”.

`Cc1[nH]c2ccccc2c1CCNCc1ccc(/C=C/C(=O)NO)cc1` [Form A of the sulfate salt, N-hydroxy-3-[4-[[[2-(2-methyl-1H-indol-3-yl)ethyl]amino]methyl]phenyl]-2E-2-propenamide]: the hygroscopicity entry in data set [2] is on record as “visibly hygroscopic”.

In turn, `Cc1[nH]c2ccccc2c1CCNCc1ccc(/C=C/C(=O)NO)cc1` [Form A of the acetate salt, N-hydroxy-3-[4-[[[2-(2-methyl-1H-indol-3-yl)ethyl]amino]methyl]phenyl]-2E-2-propenamide] returned an aqueous solubility in “Aqueous solubility” of around 2000 µg/mL.

In the case of `Cc1[nH]c2ccccc2c1CCNCc1ccc(/C=C/C(=O)NO)cc1` (racemic) [Form HA of the DL-lactate salt, N-hydroxy-3-[4-[[[2-(2-methyl-1H-indol-3-yl)ethyl]amino]methyl]phenyl]-2E-2-propenamide], the “XRPD form after equilibration” value in data set [3] (Methanol) is “converts to form SA”. In data set [3], the “form after equilibration at pH 1 and 2” value is on record as “the chloride salt is formed”; the “form conversion under most circumstances” value is recorded as “slowly converts into form A”. Also, in data set [2], the hygroscopicity entry was “slightly hygroscopic”.

Consider `Cc1[nH]c2ccccc2c1CCNCc1ccc(/C=C/C(=O)NO)cc1` [yellow powder, N-hydroxy-3-[4-[[[2-(2-methyl-1H-indol-3-yl)ethyl]amino]methyl]phenyl]-2E-2-propenamide], for which, in data set [2], the hygroscopicity entry was “very highly hygroscopic”.

`Cc1[nH]c2ccccc2c1CCNCc1ccc(/C=C/C(=O)NO)cc1` [Form A of the hemi-malate salt, N-hydroxy-3-[4-[[[2-(2-methyl-1H-indol-3-yl)ethyl]amino]methyl]phenyl]-2E-2-propenamide] registered an aqueous solubility in the data set “Aqueous solubility” of around 1400 µg/mL.

In the case of `Cc1[nH]c2ccccc2c1CCNCc1ccc(/C=C/C(=O)NO)cc1` [white crystalline solid, N-hydroxy-3-[4-[[[2-(2-methyl-1H-indol-3-yl)ethyl]amino]methyl]phenyl]-2E-2-propenamide], the hygroscopicity result in data set [2] is “non-hygroscopic”.

Regarding `Cc1[nH]c2ccccc2c1CCNCc1ccc(/C=C/C(=O)NO)cc1` [Form A of the hemi-fumarate salt, N-hydroxy-3-[4-[[[2-(2-methyl-1H-indol-3-yl)ethyl]amino]methyl]phenyl]-2E-2-propenamide], in “Aqueous solubility”, the aqueous solubility was around 400 µg/mL.

On to `Cc1[nH]c2ccccc2c1CCNCc1ccc(/C=C/C(=O)NO)cc1` (racemic) [Form A of the DL-lactate salt, N-hydroxy-3-[4-[[[2-(2-methyl-1H-indol-3-yl)ethyl]amino]methyl]phenyl]-2E-2-propenamide], for which, in data set [3] (at 0° C. and 10° C. and in acetone/water mixture), the “form observed on equilibration” value is “observed along with form HA”. In addition, the “relative stability of the form” value in data set [3] (in water and in most organic solvents) is given as “more stable than the other forms of the DL-lactate salt”. Besides, in data set [3], the “form after equilibration at pH 1 and 2” value is listed as “the chloride salt is formed”; the “form conversion under most circumstances” value is on record as “does not convert into any other form”. The hygroscopicity result in data set [2] is “slightly hygroscopic”.

In the data set “Aqueous solubility”, `Cc1[nH]c2ccccc2c1CCNCc1ccc(/C=C/C(=O)NO)cc1` [Form A of the hemi-succinate salt, N-hydroxy-3-[4-[[[2-(2-methyl-1H-indol-3-yl)ethyl]amino]methyl]phenyl]-2E-2-propenamide] yielded an aqueous solubility of around 400 µg/mL.

In the data set “Aqueous solubility”, `Cc1[nH]c2ccccc2c1CCNCc1ccc(/C=C/C(=O)NO)cc1` [Form A of the benzoate salt, N-hydroxy-3-[4-[[[2-(2-methyl-1H-indol-3-yl)ethyl]amino]methyl]phenyl]-2E-2-propenamide] had an aqueous solubility of around 700 µg/mL.

In the case of `Cc1[nH]c2ccccc2c1CCNCc1ccc(/C=C/C(=O)NO)cc1` [Free Base, N-hydroxy-3-[4-[[[2-(2-methyl-1H-indol-3-yl)ethyl]amino]methyl]phenyl]-2E-2-propenamide], the “XRPD form after equilibration” value in data set [3] (2-Propanol) was “No change”; in data set [3] (Acetone), “No change”; in data set [3] (Ethanol), “Changed to new”; in data set [3] (Ethyl Acetate), “No change”; in data set [3] (Methanol) it was “Changed to new”; in data set [3] (pH = 6.8 buffer (phosphate)), “No change”. Besides, the “XRPD form after equilibration” value in data set [3] (water) is recorded as “No change”. The Sorption in data set [4] (Sample RH % 1.5) was 0%; in data set [4] (Sample RH % 5), 0.06%; in data set [4] (Sample RH % 25), 3.39%; in data set [4] (Sample RH % 50), 5.17%; in data set [4] (Sample RH % 75), 5.22%; in data set [4] (Sample RH % 85) it was 5.24%. In data set [4] (Sample RH % 95), this compound registered a Sorption of 5.37%. Besides, the Desorption was determined as 4.11 in data set [4] (Sample RH % 5); 5.11 in data set [4] (Sample RH % 25); 5.21 in data set [4] (Sample RH % 50); 5.31 in data set [4] (Sample RH % 75); 5.33 in data set [4] (Sample RH % 85); 5.37 in data set [4] (Sample RH % 95).

Compound `Cc1[nH]c2ccccc2c1CCNCc1ccc(/C=C/C(=O)NO)cc1` [Form A of the phosphate salt, N-hydroxy-3-[4-[[[2-(2-methyl-1H-indol-3-yl)ethyl]amino]methyl]phenyl]-2E-2-propenamide] returned an aqueous solubility in the data set “Aqueous solubility” of around 6000 µg/mL.

In the case of `Cc1[nH]c2ccccc2c1CCNCc1ccc(/C=C/C(=O)NO)cc1` [free base form HA, N-hydroxy-3-[4-[[[2-(2-methyl-1H-indol-3-yl)ethyl]amino]methyl]phenyl]-2E-2-propenamide], the solubility in data set [1] (ethanol, read-out: solubility in ethanol) is around 1500 µg/mL (≈ 4.29 mM); in data set [1] (ethyl acetate, read-out: solubility in ethyl acetate), around 5600 µg/mL (≈ 16 mM); in data set [1] (methanol, read-out: solubility in methanol), around 2300 µg/mL (≈ 6.58 mM). The hygroscopicity entry in data set [2] is recorded as “slightly hygroscopic”. In addition, the “form change under vacuum” value in data set [5] (under vacuum even at ambient temperature) is “completely dehydrates and converts to form C”. The aqueous solubility result in the data set “Aqueous solubility” is on record as “approximately 0.004 mg/mL”.

Regarding `Cc1[nH]c2ccccc2c1CCNCc1ccc(/C=C/C(=O)NO)cc1` [free base form C, N-hydroxy-3-[4-[[[2-(2-methyl-1H-indol-3-yl)ethyl]amino]methyl]phenyl]-2E-2-propenamide], the “solubility in hot ethanol-water mixture” value in data set [1] (hot ethanol-water mixture) is on record as “soluble”. In addition, the figures for the “form change upon storage” value in data set [5] (listed as Form C) and in data set [5] (listed as form C) were “spontaneously rehydrate to form HA” and “rehydrate back to form HA”, respectively.

By aqueous solubility is commonly meant how much of the substance goes into solution per volume. Low values mean a poorly soluble substance, high ones a readily soluble substance. The term solubility denotes the dissolved amount per volume that the medium holds.
